Results as given in PubChem BioAssay (NCI).
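Method: 48-hour compound exposure of cells in 96-well plates, five concentrations, linear interpolation of endpoints. Definition used: TGI = concentration required for complete inhibition of growth.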

Legend:
Test in all cases: NCI anticancer screen, dose series, 48 h
[1] = system: 786-0 renal
[2] = system: A498 renal
[3] = system: A549 NSCLC
[4] = system: ACHN renal
[5] = system: BT-549 breast
[6] = system: CAKI-1 renal
[7] = system: CCRF-CEM leukemia
[8] = system: COLO 205 colon
[9] = system: DU-145 prostate
[10] = system: HCC-2998 colon
[11] = system: HCT-116 colon
[12] = system: HCT-15 colon
[13] = system: HL-60(TB) leukemia
[14] = system: HOP-62 NSCLC
[15] = system: HS 578T breast
[16] = system: HT29 colon
[17] = system: IGROV1 ovarian
[18] = system: K-562 leukemia
[19] = system: KM12 colon
[20] = system: LOX IMVI melanoma
[21] = system: M14 melanoma
[22] = system: MALME-3M melanoma
[23] = system: MCF7 breast
[24] = system: MDA-MB-231 breast
[25] = system: MDA-MB-435
[26] = system: MDA-N
[27] = system: MOLT-4 leukemia
[28] = system: NCI-H226 lung
[29] = system: NCI-H23 lung
[30] = system: NCI-H460 lung
[31] = system: NCI-H522 lung
[32] = system: NCI/ADR-RES ovarian
[33] = system: OVCAR-3 ovarian
[34] = system: OVCAR-5 ovarian
[35] = system: OVCAR-8 ovarian
[36] = system: PC-3 prostate
[37] = system: RPMI-8226 leukemia
[38] = system: RXF 393 renal
[39] = system: SF-268 CNS
[40] = system: SF-295 CNS
[41] = system: SF-539 CNS
[42] = system: SK-MEL-2 melanoma
[43] = system: SK-MEL-28 melanoma
[44] = system: SK-MEL-5 melanoma
[45] = system: SK-OV-3 ovarian
[46] = system: SN12C renal
[47] = system: SNB-19 CNS
[48] = system: SNB-75 CNS
[49] = system: SR leukemia
[50] = system: SW-620 colon
[51] = system: T-47D breast
[52] = system: TK-10 renal
[53] = system: U251 CNS
[54] = system: UACC-257 melanoma
[55] = system: UACC-62 melanoma
[56] = system: UO-31 renal

CC1(C)C2CCC1C(=O)C(C=O)C2 (stereo unspecified)
TGI [1]: > 100 µM
TGI [2]: > 100 µM
TGI [3]: > 100 µM
TGI [4]: > 100 µM
TGI [5]: > 100 µM
TGI [6]: > 100 µM
TGI [7]: > 100 µM
TGI [8]: > 100 µM
TGI [9]: > 100 µM
TGI [10]: > 100 µM
TGI [11]: > 100 µM
TGI [12]: > 100 µM
TGI [13]: > 100 µM
TGI [14]: > 100 µM
TGI [15]: > 100 µM
TGI [16]: > 100 µM
TGI [17]: > 100 µM
TGI [18]: > 100 µM
TGI [19]: > 100 µM
TGI [20]: > 100 µM
TGI [21]: > 100 µM
TGI [22]: > 100 µM
TGI [23]: > 100 µM
TGI [24]: > 100 µM
TGI [25]: > 100 µM
TGI [26]: > 100 µM
TGI [27]: > 100 µM
TGI [28]: > 100 µM
TGI [29]: > 100 µM
TGI [30]: > 100 µM
TGI [31]: > 100 µM
TGI [32]: > 100 µM
TGI [33]: > 100 µM
TGI [34]: > 100 µM
TGI [35]: > 100 µM
TGI [36]: > 100 µM
TGI [37]: > 100 µM
TGI [38]: > 100 µM
TGI [39]: > 100 µM
TGI [40]: > 100 µM
TGI [41]: > 100 µM
TGI [42]: > 100 µM
TGI [43]: > 100 µM
TGI [44]: > 100 µM
TGI [45]: > 100 µM
TGI [46]: > 100 µM
TGI [47]: > 100 µM
TGI [48]: > 100 µM
TGI [49]: 79.6 µM
TGI [50]: > 100 µM
TGI [51]: > 100 µM
TGI [52]: > 100 µM
TGI [53]: > 100 µM
TGI [54]: > 100 µM
TGI [55]: > 100 µM
TGI [56]: > 100 µM
